Assay results from patent US8445539B2, “Alpha-aminoamide derivatives useful in the treatment of psychiatric disorders” (priority 2007, dated 2013).

System: MK-801-induced PPI disruption
Assay: Prepulse inhibition of startle with disruption by MK-801
Assay type: in vivo, Wistar rats
Settings: pretreatment vehicle, treatment MK-801 0.2 mg/kg i.p., mean ± SEM
Description: Prepulse inhibition (PPI) is a cross-species phenomenon (i.e., it is present in mammals ranging from mice to humans), yet it is relatively impaired among schizophrenic patients. The PPI procedure is used to assess the subject's ability to “gate” or filter environmental information. In the acoustic (startle model) of sensorimotor gating a weak acoustic stimulus (prepulse) decrease the reflexive flinching response (startle) produced by a second, more intense, stimulus (the pulse). Drugs like dizocilpine (MK-801) or amphetamine disrupt PPI and represent an animal model of schizophrenia; antipsychotic drugs are able to prevent PPI deficit. The test is quite useful to screen potential antipsychotic drugs.
Methods: Male Wistar rats, weighing 200-300 g were used. Apparatus: All startle and PPI testing has been performed in four startle chambers. Each ventilated illuminated and sound proof chamber contained a clear non-restrictive Plexiglas cylinder resting on a platform. A high-frequency loudspeaker inside the chamber produced both a continuous background noise of 70 dB and the various acoustic stimuli. Vibrations of the Plexiglas cylinder caused by the whole-body startle response of the animal were transduced into analogue signals by a piezoelectric unit attached to the platform. These signals were then digitized and stored by a computer. Sixty-five readings were taken at 1-ms intervals starting at stimulus onset, and the average amplitude was used to determine the acoustic startle response. Sound levels is given in dB.
Prepulse inhibition session: After 5 min of habituation (background white noise, 70 dB), two types of acoustic stimuli were used: acoustic stimulus alone (120 dB, 40 ms) or the stimulus proceeded by a prepulse (76, 79, 82 dB, 40 ms) applied 100 ms before the stimulus. During each experimental session 20 trials of each type were presented with interstimulus interval of 20 s. The amplitudes were averaged for each individual animal, separately for both types of trials (stimulus alone or stimulus preceded by the prepulse). The degree of prepulse inhibition was shown as a percentage score (% PPI) calculated as […] a difference between the amplitude of the pulse-alone (P) and the amplitude of the prepulse+pulse trials (PP+P), divided by the amplitude of the pulse-alone trials and multiplied by 100. […] Substances and treatments: MK-801 0.2 mg/kg was dissolved in saline and was given i.p. In each experiment, […] were assigned to receive either compounds of the disclosure or vehicle and were tested in the PPI session using a between-subjects design. The order of drug treatment for the first experiment was test-compound, followed by MK-801; for the second experiment rats received test-compound and then amphetamine. Statistical Analysis: Multiple ANOVA was conducted followed by Dunnett's post hoc test.

C[C@]12N[C@H](Cc3ccccc31)c1ccccc12 [MK-801, reference compound]
Percentage of inhibition (% PPI): 9.07 ± 0.81 %
Acoustic tone alone (startle amplitude): 40.50 ± 1.96
Startle amplitude on prepulse + pulse trials (startle amplitude): 37.00 ± 2.11
